Data on five compounds can be found in paper PMC11817512, “In Slico Screening and In Vitro Identification of Hyperuricemia-Inhibiting Peptides from Trachurus japonicus” (Foods, 2025).

For data set [1], the target named is T1, XOD (Bos taurus, UniProt P80457).
T1 construct: Xanthione oxidase (XOD) from milk; purchased Solarbio Co., Ltd. (Beijing, China); host or cells: milk
In words: In vitro XOD inhibitory assay. Conditions: XOD from milk, xanthine substrate, PBS pH 7.4, 37 °C, absorbance 295 nm, mean ± SD, n = 3; as restated in section 3.5.1; read-out: IC50 for XOD (three-decimal values). It counts as biochemical. The text has this: Xanthione oxidase (XOD) from milk, 1,1-Diphenyl-2-picrylhydrazyl (DPPH), 2,2′-azino-bis(3-ethylbenzothiazoline-6-sulfonic acid) (ABTS), a xanthine oxidase assay kit, and glutathione (GSH) were purchased from Solarbio Co., Ltd. (Beijing, China). Allopurinol was purchased from Aladdin Co. Ltd. (Shanghai, China). UA was purchased from Sigma-Aldrich Co. LLC. (St. Louis, MO, USA). A Cell Counting Kit-8 (CCK-8) was obtained from APExBIO Technology LLC. (Houston, TX, USA). Other chemicals were provided by Sinopharm Chemical Reagent Co., Ltd. (Shanghai, China) and were of analytical grade.
The in vitro XOD inhibitory assay was carried out by adopting the approach of Zhao et al., with minor alterations. Xanthine and XOD were, respectively, dissolved in phosphate-buffered solution (PBS, with a pH value of 7.4) at concentrations of 1.5 mM and 0.1 U/mL. Peptides of different concentrations (10, 20, 40, 80, and 160 mM) were dissolved in the PBS. A total of 120 μL of the sample solution, 150 μL of PBS, and 100 μL of XOD solution were combined and allowed to react thoroughly at 37 °C for 15 min. Subsequently, 120 μL of xanthine solution was added and the reaction was continued for an additional 20 min. Eventually, 150 μL of 1 M HCl was added to halt further enzymatic activity, and the absorbance was determined at 295 nm by means of an ultraviolet spectrophotometer (TU-1810PC, Purkinje, Beijing, China). The XOD inhibition rate was calculated according to Equation (1).XOD inhibition rate (%) = [1 − (A1 − A3)/(A2 − A4)] × 100%(1) where A1 is the absorbance after the mixed reaction of the inhibitor, XOD, and xanthine; A2 is the absorbance after the reaction of xanthine and XOD without adding the inhibitor; A3 is the absorbance of the sample and xanthine without adding XOD; and A4 is the absorbance of the xanthine solution without adding XOD and the inhibitor. […]

The test system of data set [2] is HK-2 cells.
Text: HK-2 cells were procured from the National Collection of Authenticated Cell Cultures (SCSP-511, Shanghai, China). The cytotoxicity of the peptides was appraised through a CCK-8 assay in line with the methodology of Gan, Cao, Cai, Xiang, Li, and Luan [30]. HK-2 cells were inoculated in 96-well plates (3 × 10^4 cells per well) and cultivated in Dulbecco’s Modified Eagle Medium (DMEM; provided by Life Technologies Corp., New York, NY, USA) supplemented with 10% fetal bovine serum (FBS; from Life Technologies Corp., New York, NY, USA) at 37 °C in an atmosphere containing 5% CO2 for a duration of 24 h. Peptides were introduced into the wells, and, following a 24 h incubation period, 10 μL of CCK-8 reagent was added to each well and incubated for 1 h. The absorbance was gauged at 450 nm using a microplate reader (Spark, Tecan, Austria).
Data set [3] relates to HK-2 cells. Briefly: Uric acid (UA) level in hyperuricemia HK-2 cell model. Conditions: 24 h, then 2.5 mM adenosine 30 h and XOD 12 h, n = 3. It counts as cell-based. The method, then: The cell modeling process was carried out by following the method of Mao et al., with certain modifications. HK-2 cells were cultured in DMEM supplemented with 10% FBS at 37 °C under a 5% CO2 environment for 24 h. […] The control group and the model group were also cultured in the medium for the same period of time. Subsequently, the experimental group, the positive group, and the model group were incubated with 2.5 mM adenosine for 30 h and then further incubated with XOD (at a concentration of 0.005 U/mg) for 12 h. The content and concentration of UA in the cell supernatant were measured using a XOD assay kit.

Data set [4] concerns URAT1. Briefly: URAT1 urate transport / protein expression at the cellular level (Western blot). Conditions: HK-2 cells. It counts as cell-based. The text has this: (§1) The protein expressions of URAT1 and GLUT9 within cells were detected by means of Western blot, in accordance with the method of Mao, Jiang, and Mao [32]. The primary antibodies were as follows: URAT1 (1:1000; Cat#14937-1AP; Proteintech, Wuhan, China), GLUT9 (1:1000; Cat#ab223470; Abcam, Shanghai, China), and β-actin (1:5000; Cat#ab6276; Abcam). The secondary antibodies were as follows: Goat Anti-Mouse IgG H&L (HRP) (Cat#ab205719; Abcam) and Goat Anti-Rabbit IgG H&L (HRP) (Cat#ab6721; Abcam). The protein levels were quantitatively gauged using ImageJ software (1.8.0.112).
Background: A western blot detects proteins with antibodies after separation by electrophoresis.

For data set [5], the system named is GLUT9. In words: GLUT9 urate transport / protein expression at the cellular level (Western blot). It counts as cell-based. Conditions: HK-2 cells.
Text: as §1

Where a SMILES comes first, the peptide text is derived from it. Where no end group is shown, it is not given here.

T1 sequence (P80457 whole entry): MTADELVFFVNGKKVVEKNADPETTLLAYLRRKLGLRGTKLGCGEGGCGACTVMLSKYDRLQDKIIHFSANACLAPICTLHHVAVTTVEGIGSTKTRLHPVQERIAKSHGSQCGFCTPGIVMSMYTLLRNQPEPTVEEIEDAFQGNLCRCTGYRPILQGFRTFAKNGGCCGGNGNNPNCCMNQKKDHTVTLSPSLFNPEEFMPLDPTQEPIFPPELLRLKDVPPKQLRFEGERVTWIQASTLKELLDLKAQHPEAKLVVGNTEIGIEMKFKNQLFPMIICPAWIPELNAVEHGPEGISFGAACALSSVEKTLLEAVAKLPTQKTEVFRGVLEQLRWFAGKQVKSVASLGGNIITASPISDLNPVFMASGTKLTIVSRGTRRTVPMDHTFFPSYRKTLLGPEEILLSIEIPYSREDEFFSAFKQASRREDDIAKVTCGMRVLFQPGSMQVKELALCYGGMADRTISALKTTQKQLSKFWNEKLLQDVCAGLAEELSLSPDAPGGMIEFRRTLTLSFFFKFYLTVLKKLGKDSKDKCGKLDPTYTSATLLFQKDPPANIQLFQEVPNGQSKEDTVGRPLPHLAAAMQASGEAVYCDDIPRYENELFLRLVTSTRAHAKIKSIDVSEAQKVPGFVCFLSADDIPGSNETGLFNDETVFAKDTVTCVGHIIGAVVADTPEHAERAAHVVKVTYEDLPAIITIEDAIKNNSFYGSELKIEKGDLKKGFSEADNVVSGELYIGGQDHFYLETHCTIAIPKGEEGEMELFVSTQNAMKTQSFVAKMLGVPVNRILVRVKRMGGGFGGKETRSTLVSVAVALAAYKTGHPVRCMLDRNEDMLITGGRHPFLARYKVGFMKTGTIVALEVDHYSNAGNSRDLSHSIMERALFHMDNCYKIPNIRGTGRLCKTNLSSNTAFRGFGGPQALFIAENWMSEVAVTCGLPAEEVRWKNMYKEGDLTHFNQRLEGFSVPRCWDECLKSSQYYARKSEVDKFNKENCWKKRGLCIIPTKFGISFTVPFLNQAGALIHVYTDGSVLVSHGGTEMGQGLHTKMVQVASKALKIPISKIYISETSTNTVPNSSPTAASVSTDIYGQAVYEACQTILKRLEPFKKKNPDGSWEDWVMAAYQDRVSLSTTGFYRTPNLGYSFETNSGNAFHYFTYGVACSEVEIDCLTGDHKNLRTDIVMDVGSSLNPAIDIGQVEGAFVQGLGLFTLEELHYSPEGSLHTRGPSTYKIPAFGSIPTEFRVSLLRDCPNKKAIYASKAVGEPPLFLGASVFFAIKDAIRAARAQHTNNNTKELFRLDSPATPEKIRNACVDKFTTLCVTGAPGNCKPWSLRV

In general, IC50 refers to the concentration needed to halve the response being measured. Regarding `C[C@H](N)C(=O)NCC(=O)N[C@@H](Cc1ccccc1)C(=O)O` [AGF] (H-Ala-Gly-Phe-OH), the 50% inhibitory concentration (IC50) in data set [1] is 48.6 ± 9.95 mM. Further, the “cell viability of HK-2 at higher doses” value in data set [2] was “slight reductions in cell viability”.
As for `N[C@@H](CC(=O)O)C(=O)N[C@@H](Cc1ccccc1)C(=O)O` [DF] (H-Asp-Phe-OH; N-terminus and C-terminus assumed), the “reduction of UA levels in HK-2 cells, peptides” value in data set [3] (peptide 4 mM (section 3.4)) was 45.57%. The “reduction of urate transport by URAT1 in cells” value in data set [4] is given as “can curtail the transport of urate by URAT1 in cells”. In addition, in data set [2], the “cell viability of HK-2 at higher doses” value is “slight reductions in cell viability”. For the same compound, the “reduction of urate transport by GLUT9 in cells” value in data set [5] is recorded as “can effectively diminish the transport of urate by GLUT9 within cells”.
On to `NC(=O)CC[C@H](N)C(=O)N1CCC[C@H]1C(=O)N[C@@H](CO)C(=O)N[C@@H](Cc1ccccc1)C(=O)O` [QPSF] (H-QPSF-OH), for which the IC50 in data set [1] came to 38.4 ± 7.25 mM. Also, in data set [2], the “cell viability of HK-2 at higher doses” value is “slight reductions in cell viability”.
Consider `Oc1ncnc2[nH]ncc12` [allopurinol, reference compound], for which, in data set [3] (0.1 mM allopurinol), the “reduction of UA levels in HK-2 cells, allopurinol” value is 52.25%.
As to AGDDAPR [AGDDAPR], in data set [1], the IC50 came to 66 ± 10.9 mM. For the same compound, the “cell viability of HK-2 at higher doses” value in data set [2] was “slight reductions in cell viability”.
